Measured values taken from patent publication US20130261024A1, “System for Identifying Connections Between Perturbagens and Genes Associated with a Skin Hyperpigmentation Condition” (THE PROCTER & GAMBLE COMPANY, priority 2012, published 2013).

Tests used:
[1] = tested on: teleomerized human keratinocytes (tKC); experiment: C-map query with the Retinoic Acid/Keratinocyte 200 benchmark signature; assay type: cell-based; conditions: Retinoic Acid Keratinocyte RA-200 signature
Method: (§1) Individual experiments (referred to as batches) generally comprise 30 to 96 samples analyzed using Affymetrix GeneChip® technology platforms, containing 6 replicates of the vehicle control (e.g., DSMO), 2 replicate samples of a positive control that gives a strong reproducible effect in the cell type used, and samples of the test material/perturbagen. Replication of the test material is done in separate batches due to batch effects. In vitro testing was performed in 6-well plates to provide sufficient RNA for GeneChip® analysis (2-4 μg total RNA yield/well).
(§2) Human telomerized keratinocytes (tKC) were obtained from the University of Texas, Southwestern Medical Center, Dallas, Tex. tKC cells were grown in EpiLife® media with 1× Human Keratinocyte Growth Supplement (Invitrogen, Carlsbad, Calif.) on collagen I coated cell culture flasks and plates (Becton Dickinson, Franklin Lakes, N.J.). Keratinocytes were seeded into 6-well plates at 20,000 cells/cm^2 24 hours before chemical exposure. […]
(a) Tert-keratinocytes (tKC) RA Signatures. […] Cells were treated with 1 uM tRA for 6 hr, tested in triplicate, with triplicate DMSO controls, and analyzed on HG-U133A GeneChips. […]

hyperpigmented spots = experiment: 9-week randomized, double-blind, vehicle-controlled, split-face tone benefit clinical study; assay type: in vivo, Chinese females; conditions: 0.05% in SC-99 vehicle
From the text: This Example provides evidence of the advantages of using composite signatures and illustrates clinical affirmation of the C-map model for predicting efficacy of skin-lightening agents. This Example supports embodiments related to composite signatures (as described at the end of Example 3). An illustrative “Skin Tone” Signature developed from a genomics study using a composite skin-lightening benchmark agent signature is derived from Niacinamide, Hexamidine, Sepiwhite, and NAG. The signature is used to query C-map and generate a list of potential skin-lightening agents. A top hit, Chlorhexidine Diactate (CD) is entered into clinical testing for confirmation of efficacy. The control for clinical efficacy is a 5% Niacinamide+1% Sepiwhite formulation in the control vehicle.
Primary endpoints are changes in color spot area fraction (image analysis) and melanin spot area fraction (NC2) from baseline. Secondary endpoints are changes from baseline in L*a*b (color image analysis), mean melanin gray scale (NC2), and melanin evenness (NC2). Texture area fraction and pore area fraction are also evaluated to explore impact on other aspects relating to overall skin tone. […] Statistically significant superiority to the high efficacy benchmark skin active agent to vehicle performance is the clinical success criteria.
Study Design: The experimental protocol included a 9-week (1-week preconditioning & 8-week treatment), randomized, double-blind, round robin, vehicle-controlled, split-face tone benefit study. The subject population included 330 Chinese females, 25-55 years old with hyperpigmented spots. 318 subjects completed the entire study. […] Olay Complete SPF 15 UV Moisturizing Lotion is concomitantly used during pre-conditioning and treatment. 0.5 g each test product per half-face (forehead to jaw line; ˜4 mg/cm^2) is dosed 2× a day (morning/evening). Color SAF and treatment area, Melanin SAF, gray scale, evenness by NC2, and additional measurement of Fine Lines and Wrinkle and Texture are by REAL 3.01A. Data collection points include baseline, and ends of weeks 4, 6 and 8. The tested hypothesis is that there is no difference in clinical endpoint versus the benchmark composition treatment. Study site is Kuntai Clinical Center, Beijing, China and study time frame is February 2010 (pre-conditioning) to April 2010.

[2] = tested on: tert-Keratinocyte (tKC) cells; experiment: C-map query with the composite "skin tone" benchmark signature (Niacinamide, Sepiwhite, NAG, Hexamidine); assay type: cell-based, human; conditions: composite signature of Example 3
Method: as §1
as §2, with “exposure. Human skin fibroblasts (BJ cell line from ATCC, Manassas, Va.) were grown in Eagle's Minimal Essential Medium (ATCC) supplemented with 10% fetal bovine serum (HyClone, Logan, Utah) in normal cell culture flasks and plates (Corning, Lowell, Mass.). BJ fibroblasts were seeded into 6-well plates at 12,000 cells/cm^2 24 hours before chemical exposure.” for “exposure.”

SMILES: CC1=C(/C=C/C(C)=C/C=C/C(C)=C/C(=O)O)C(C)(C)CCC1 [Retinoic acid, all-trans-retinoic acid]
- average C-map score [1]: highest score of the materials tested

SMILES: CC(=O)O.CC(=O)O.NC(=N\CCCCCC/N=C(N)/N=C(\N)Nc1ccc(Cl)cc1)/N=C(\N)Nc1ccc(Cl)cc1 [CD, Chlorhexidine Diacetate]
- Pore area fraction (hyperpigmented spots; compared to vehicle, week 8): superior efficacy
- Texture area fraction (hyperpigmented spots; compared to vehicle, week 8): superior efficacy
- spot area fraction color test (hyperpigmented spots; compared to vehicle, week 8): significantly fewer spots
- spot area fraction NC2 test (hyperpigmented spots; compared to vehicle, weeks 6 and 8): significantly reduced fraction
- Basal skin tone (hyperpigmented spots; versus vehicle, week 8): superiority
- NC2 Melanin evenness test (hyperpigmented spots; versus vehicle, weeks 6 and 8): superiority to the vehicle
- connectivity to tone composite benchmark signature query [2]: top connectivity hit
